Experimental data reported in PMC4460250, “Systems Pharmacology Dissecting Holistic Medicine for Treatment of Complex Diseases: An Example Using Cardiocerebrovascular Diseases Treated by TCM” (Evidence-based Complementary and Alternative Medicine : eCAM, 2015).

Details: in vivo

| SMILES | Class(High: HIA value ≥0.7; Low: HIA value < 0.7) |
| --- | --- |
| C#CC1(O)CC[C@H]2[C@@H]3CCC4=CC(=O)CC[C@@H]4[C@H]3CC[C@@]21CC (some centres unmarked) [Norgestrel] | High (key: High: HIA value ≥0.7; Low: HIA value < 0.7) |
| O=C(O)c1ccccc1O [Salicylic acid] | High (key: High: HIA value ≥0.7; Low: HIA value < 0.7) |
| O=C1CN=C(c2ccccc2)c2cc(Cl)ccc2N1 [Nordazepam] | High (key: High: HIA value ≥0.7; Low: HIA value < 0.7) |
| CCN(CC)CCOC(=O)C(Cc1cccc2ccccc12)CC1CCCO1 (centres unmarked) [Nafronyl] | High (key: High: HIA value ≥0.7; Low: HIA value < 0.7) |
| Nc1cc(N2CCCCC2)nc(N)[n+]1[O-] [Minoxidil] | High (key: High: HIA value ≥0.7; Low: HIA value < 0.7) |
| O=C1Nc2ccc(Cl)cc2C(c2ccccc2)=N[C@@H]1O [Oxazepam(R)] | High (key: High: HIA value ≥0.7; Low: HIA value < 0.7) |
| CCOc1ccc2c3c1O[C@H]1[C@@H](O)C=C[C@H]4[C@@H](C2)N(C)CC[C@@]341 [Ethylmorphine] | High (key: High: HIA value ≥0.7; Low: HIA value < 0.7) |
| CCCc1cc(=O)[nH]c(=S)[nH]1 [Propylthiouracil] | High (key: High: HIA value ≥0.7; Low: HIA value < 0.7) |

Details: human; PreHIA data set, value given as fraction; cited from earlier work

| SMILES | HIA(Human Intestinal Absorption) |
| --- | --- |
| N[C@@H](Cc1ccc(O)c(O)c1)C(=O)O [Levodopa] | 0.86 |

Same assay, conditions: in vivo; cited from earlier work

| SMILES | HIA(Human Intestinal Absorption) |
| --- | --- |
| CC(C)NCC(O)COc1ccc(CCOCC2CC2)cc1 (centres unmarked) [Betaxolol] | 0.9 |
| Cc1[nH]c(=O)c(C#N)cc1-c1ccncc1 [Milrinone] | 0.83 |
| N=C(N)N/N=C/c1c(Cl)cccc1Cl [Guanabenz] | 0.8 |
| Cc1cccc(C)c1NC(=O)NCCCNC(C)C [Recainam] | 0.71 |
| Cc1nnc(NS(=O)(=O)c2ccc(N)cc2)s1 [Sulfamethizole] | 0.85 |
| O=C1CN(/N=C/c2ccc([N+](=O)[O-])o2)C(=O)N1 [Nitrofurantoin] | 0.95 |
| CCC1=C(C)CN(C(=O)NCCc2ccc(S(=O)(=O)NC(=O)N[C@H]3CC[C@H](C)CC3)cc2)C1=O [Glimepiride] | 1 |
| C[N+](C)(CCOc1ccccc1)Cc1ccccc1 [Bephenium] | 0.05 |
| CN(C)CCCOc1nn(Cc2ccccc2)c2ccccc12 [Benzydamine] | 0.87 |
| O=C(O)Cc1ccccc1Oc1ccc(Cl)cc1Cl [Fenclofenac] | 1 |
| O=C(O)c1cc(-c2ccc(F)cc2F)ccc1O [Diflunisal] | 0.9 |
| CC1=C(/C=C/C(C)=C/C=C/C(C)=C/CO)C(C)(C)CCC1 [Vitamin_A] | 0.8 |
| CC(C)(C)NC(=O)[C@H]1CC[C@H]2[C@@H]3CC[C@H]4NC(=O)C=C[C@]4(C)[C@H]3CC[C@]12C [Finasteride] | 1 |
| CN1CCN2c3ccccc3Cc3ccccc3C2C1 (centres unmarked) [Mianserin] | 0.7 |
| O=C1CN(/N=C/c2ccc(-c3ccc([N+](=O)[O-])cc3)o2)C(O)=N1 [Dantrolene] | 0.8 |
| CC[C@H]1OC(=O)[C@H](C)[C@@H](O[C@H]2C[C@@](C)(OC)[C@@H](O)[C@H](C)O2)[C@H](C)[C@@H](O[C@@H]2O[C@H](C)C[C@H](N(C)C)[C@H]2O)[C@](C)(O)C[C@@H](C)C(=O)[C@H](C)[C@@H](O)[C@]1(C)O [Erythromycin] | 0.35 |
| Nc1cc(-c2ccncc2)c[nH]c1=O [Amrinone] | 0.93 |
| CC(=O)S[C@@H]1CC2=CC(=O)CC[C@]2(C)[C@H]2CC[C@@]3(C)[C@@H](CC[C@@]34CCC(=O)O4)[C@H]12 [Spironolactone] | 0.73 |
| CC(O)(P(=O)(O)O)P(=O)(O)O [Etidronate] | 0.05 |
| COc1cc(C)c(/C=C/C(C)=C/C=C/C(C)=C/C(=O)O)c(C)c1C [Acitretin] | 0.95 |
| COc1ccc(CCN2CCC(Nc3nc4ccccc4n3Cc3ccc(F)cc3)CC2)cc1 [Astemizole] | 1 |
| C#C[C@]1(O)C=C[C@H]2[C@@H]3CCC4=CC(=O)CC[C@@H]4[C@H]3CC[C@@]21CC [Gestodene] | 1 |
| CC(=O)N[C@H]1[C@H]([C@H](O)[C@H](O)CO)OC(C(=O)O)=C[C@@H]1N=C(N)N [Zanamivir] | 0.02 |

| SMILES | HIA(Human Intestinal Absorption) |
| --- | --- |
| CN1C(C(=O)Nc2ccccn2)=C(O)c2ccccc2S1(=O)=O [Piroxicam] | 1 |
| CN(C)CCC=C1c2ccccc2CCc2ccccc21 [Amitriptyline] | 0.95 |
| CN(C)CCOc1ccc(/C(=C(/CCCl)c2ccccc2)c2ccccc2)cc1 [Toremifene] | 1 |
| CCC[C@H](N[C@@H](C)C(=O)N1[C@H](C(=O)O)C[C@@H]2CCCC[C@@H]21)C(=O)OCC [Perindopril] | 0.95 |
| Cc1nc(=O)c(C#N)c(NCc2cccnc2)[nH]1 [Pelrinone] | 0.98 |
| C[C@@H](O)[C@H]1C(=O)N2C(C(=O)O)=C(SCCN=CN)C[C@H]12 [Imipenem] | 0.05 |
| O=C(O)c1cccnc1 [Nicotinic_acid] | 0.88 |
| CC(C)(C)NCC(O)COc1cccc2c1CC(O)C(O)C2 (centres unmarked) [Nadolol] | 0.57 |
| CCOC(=O)C(C)(C)Oc1ccc(Cl)cc1 [Clofibrate] | 0.97 |
| O=C(C1CCCCC1)N1CC(=O)N2CCc3ccccc3C2C1 (centres unmarked) [Praziquantel] | 1 |
| C=CC(N)CCC(=O)O (centres unmarked) [Vigabatrin] | 0.58 |
| CCc1cc(C(N)=S)ccn1 [Ethionamide] | 0.9 |
| CCC1(c2ccccc2)C(=O)NC(=O)NC1=O [Phenobarbital] | 1 |
| Cc1ccc(S(=O)(=O)NC(=O)N[C@H]2[C@H]3CC[C@@](C)([C@H]2O)C3(C)C)cc1 [Glibornuride] | 0.98 |
| CCOc1ccccc1OCCN[C@H](C)Cc1ccc(OC)c(S(N)(=O)=O)c1 [Tamsulosin] | 1 |
| CCOC(=O)[C@H](CCc1ccccc1)N[C@@H](C)C(=O)N1CCC[C@H]1C(=O)O [Enalapril] | 0.66 |
| CC1=C(C(=O)O)N2C(=O)[C@@H](NC(=O)[C@H](N)c3ccc(O)cc3)[C@H]2SC1 [Cefadroxil] | 1 |
| CN(C)CCCN1c2ccccc2CCc2ccccc21 [Imipramine] | 1 |
| Cc1ccc(S(=O)(=O)NC(=O)NN2CC3CCCC3C2)cc1 (centres unmarked) [Gliclazide] | 0.65 |
| O=C(NCCN1CCOCC1)c1ccc(Cl)cc1 [Moclobemide] | 0.88 |
| NC[C@H]1CC[C@H](C(=O)O)CC1 [Tranexamic_acid] | 0.55 |
| c1ccc2[nH]c(-c3cscn3)nc2c1 [Thiabendazole] | 0.9 |
| CC1=C(C(=O)O)N2C(=O)[C@@H](NC(=O)[C@H](N)C3=CCC=CC3)[C@H]2SC1 [Cephradine] | 0.95 |

| SMILES | HIA(Human Intestinal Absorption) |
| --- | --- |
| O=C1CC[C@@]2(O)[C@H]3Cc4ccc(O)c5c4[C@@]2(CCN3CC2CC2)[C@H]1O5 [Naltrexone] | 0.95 |
| NS(=O)(=O)c1cc(C(=O)O)cc(N2CCCC2)c1Oc1ccccc1 [Piretanide] | 0.85 |
| CNCCc1ccccn1 [Betahistine] | 1 |
| COc1ccc([C@]2(C#N)CC[C@@H](C(=O)O)CC2)cc1OC1CCCC1 [Cilomilast] | 1 |
| CCCCCC(=O)O[C@]1(C(C)=O)CC[C@H]2[C@@H]3CCC4=CC(=O)CC[C@]4(C)[C@H]3CC[C@@]21C [Hydroxyprogesterone_caproate] | 0.9 |
| C[C@@H]1CN(c2c(F)c(N)c3c(=O)c(C(=O)O)cn(C4CC4)c3c2F)C[C@H](C)N1 [Sparfloxacin] | 0.9 |
| Cc1cnc(NC(=O)C2=C(O)c3ccccc3S(=O)(=O)N2C)s1 [Meloxicam] | 0.9 |
| CC(C[N+](C)(C)C)OC(N)=O (centres unmarked) [Bethanechol] | 0.05 |
| COc1ccccc1N1CCN(CCCNc2cc(=O)n(C)c(=O)n2C)CC1 [Urapidil] | 0.78 |
| CN1C2CCCC1CC(NC(=O)c1nn(C)c3ccccc13)C2 (centres unmarked) [Granisetron] | 1 |
| O=C(O)P(=O)(O)O [Foscarnet] | 0.17 |
| OCCOCCN1CCN(C2=Nc3ccccc3Sc3ccccc32)CC1 [Quetiapine] | 0.73 |
| O=C1OC2(c3ccc(O)cc3Oc3cc(O)ccc32)c2ccccc21 [Fluorescein] | 0.99 |
| CO/N=C(\C(=O)N[C@@H]1C(=O)N2C(C(=O)O)=C(COC(C)=O)CS[C@H]12)c1csc(N)n1 [Cefotaxime] | 0.05 |
| CCc1nn(CCCN2CCN(c3cccc(Cl)c3)CC2)c(=O)n1CCOc1ccccc1 [Nefazodone] | 1 |
| COc1ccc2c(c1)C(=O)N(CCc1ccc(S(=O)(=O)NC(=O)NC3CCCCC3)cc1)C(=O)C2(C)C [Gliquidone] | 0.95 |
| CN(C)C(=N)N=C(N)N [Metformin] | 0.53 |
| [H]/N=C(\N/C(=N/[H])NCCCCCCNC(=N)NC(=N)Nc1ccc(Cl)cc1)Nc1ccc(Cl)cc1 [Chlorhexidine] | 0.05 |
| NCC[C@H](O)C(=O)N[C@@H]1C[C@H](N)[C@@H](O[C@H]2O[C@H](CN)[C@@H](O)[C@H](O)[C@H]2O)[C@H](O)[C@H]1O[C@H]1O[C@H](CO)[C@@H](O)[C@H](N)[C@H]1O [Amikacin] | 0.01 |
| Cc1cc(NS(=O)(=O)c2ccc(N)cc2)nc(C)n1 [Sulfisomidine] | 0.9 |
| Cc1cccc(Nc2ccccc2C(=O)O)c1C [Mefenamic_acid] | 0.9 |
| COc1ccc2[nH]c([S+]([O-])Cc3ncc(C)c(OC)c3C)nc2c1 (centres unmarked) [Omeprazole] | 0.8 |
